In paper PMC12144822 (Parasites & Vectors, 2025):
Entries after “also recorded” stand apart in the source; their conditions may differ. Where two headings read alike, the source gives them in different places.

Columns and labels:
Hsa-GABA α5β2γ2 = Hsa-GABA α5β2γ2 (Homo sapiens, UniProt P18507+P31644+P47870); assay: Two-electrode voltage-clamp inhibition of GABA current, receptor expressed in Xenopus oocytes
From the text: (§1) Complementary DNA (cDNA) encoding for the human GABAA proteins α1 (NM_001127645.2), α2 (NM_001377146.1), α3 (KJ620007.1), α4 (NM_000809.4), α5 (NM_000810.4), α6 (NM_000811.3), β2 (XM_054352312.1), β3 (M82919.1), γ2 (NM_000816.3) and δ (NM_000815.5) were ordered from Genewiz (www.genewiz.com; Leipzig, Germany); for each gene, GenBank accession numbers are provided in parentheses. When necessary, silent mutations were introduced to break NheI or XhoI internal restriction sites. The corresponding open reading frames (ORF) were cloned into the pT7-TS transcription vector (introducing X. laevis β-globin untranslated cDNA to the 5’ and 3’ ends of the gene), following a procedure described in detail in a previous publication. The same process was used to obtain cDNA encoding canine GABAA proteins α4 (XM_025435560.1), α6 (XM_022417729.1) and δ (XM_005620414.2). Gene α2 (XM_025435664.1), α3 (XM_549343.5), α5 (XM_545805.6) and β3 (XM_025437408.1) were obtained by PCR; GenBank reference accession numbers are provided in parentheses. RNA extraction, cDNA synthesis and PCR amplification were performed as described previously. Total RNA was extracted from a piece of dog brain (Beagle breed; Canis lupus familiaris) from which 1 µg of total RNA (DNase-treated) was reverse-transcribed to cDNA using a (dT)30 primer and SuperScript III Reverse Transcriptase (Invitrogen, Thermo Fisher Scientific, Waltham, MA, USA). Gene-specific primers (Additional file 1: Table S1) were designed using Primer 3 software (http://frodo.wi.mit.edu/). […] The cycling conditions were: 98 °C for 30 s; then 38 cycles of 98 °C for 10 s, 58 °C for 30 s and 72 °C for 90 s; followed by 72 °C for 5 min. The dog subunits α1 (XM_546261.5), β2 (XM_014113040.1) and γ2 (XM_546259.5) had been previously amplified and described in a study by Rufener et al..
(§2) Defoliculated X. laevis oocytes ordered from Ecocyte Bioscience (Dortmund, Germany) were microinjected with 15–25 nl of cRNA solution (5–50 ng/μl) per oocyte using an automated injector (Roboinject; Multi Channel Systems MCS GmbH, Reutlingen, Germany) and then incubated at 18 °C. All recordings were made 1–5 days post-cRNA injection and were performed at 18 ± 4 °C. Cells were superfused with OR2 medium (NaCl 88 mM, KCl 2.5 mM, HEPES 5 mM, CaCl2•2H2O 1.8 mM, MgCl2•7H2O 1.0 mM, pH 7.4). To ensure that γ2 subunits were integrated into the heteropentamers, we injected fivefold more γ2 than the other subunit cRNAs. Diazepam is a positive allosteric modulator of GABAR only if γ2 subunits are present. Therefore, we used this method to confirm the presence of human and dog GABAA receptor containing the γ2 subunit.
(§3) Voltage-clamp measurements were performed as described by Rufener et al.. Oocytes were impaled with two electrodes filled with 3 M KCl, and their membrane potentials were maintained at − 80 mV throughout the experiment. […] Recordings were performed using an automated process equipped with standard two-electrode voltage-clamp configuration (HiClamp system; Multi Channel Systems MCS GmbH). Data were filtered at 10 Hz, captured at 100 Hz and analyzed using proprietary data acquisition and analysis software in MATLAB (Mathworks Inc., Natick, MA, USA). Additional analyses were performed using Excel (Microsoft, Redmond, WA, USA). […] Graphing the maximum inward currents against the log of agonist concentration produces typical concentration-activation and concentration-inhibition curves, which can be accurately described using individual Hill equations.

Hsa-GABA α2β2γ2 = Hsa-GABA α2β2γ2 (Homo sapiens, UniProt P18507+P47869+P47870); assay: as above
From the text: as §1, §2, §3

Hsa-GABA α3β2γ2 = Hsa-GABA α3β2γ2 (Homo sapiens, UniProt P18507+P34903+P47870); assay: as above
From the text: as §1, §2, §3

Hsa-GABA α6β2γ2 = Hsa-GABA α6β2γ2 (Homo sapiens, UniProt P18507+P47870+Q16445); assay: as above
From the text: as §1, §2, §3

Hsa-GABA α1β2γ2 = Hsa-GABA α1β2γ2 (Homo sapiens, UniProt P14867+P18507+P47870); assay: as above
From the text: as §1, §2, §3

Hsa-GABA α2β3γ2 = Hsa-GABA α2β3γ2 (Homo sapiens, UniProt P18507+P28472+P47869); assay: as above
From the text: as §1, §2, §3

human and canine GABARs = assay: Voltage-clamp inhibition, summary over human and canine receptors; format: cell-based; settings: for inhibitory effect on human and canine GABARs (in words): tested up to 30 μM
Experimental: as §2
as §3, with “equations. The concentration-activation curves were fitted using the following equation: Y=100/1+10^H(logEC50-X) where Y is the normalized response, logEC50 is the logarithm of the concentration of agonist eliciting half-maximal current amplitude, X is the log of the dose or concentration, and H is the slope factor or Hill slope. The same equation was used for the concentration-inhibition curves but logEC50 was replaced by logIC50 (half-maximal inhibitory concentration).” for “equations.”
(§4) The agonist and the drug were then washed off for 15 s and the oocyte was exposed again to the same drug concentration for 25 s before increasing to the next concentration.

Hsa-GABARs = assay: Voltage-clamp inhibition, summary over the six human subunit combinations; settings: for average GABA current inhibition: at 30 μM, average over Hsa-GABARs
Experimental: as §2
as §3, with “equations. The concentration-activation curves were fitted using the following equation: Y=100/1+10^H(logEC50-X) where Y is the normalized response, logEC50 is the logarithm of the concentration of agonist eliciting half-maximal current amplitude, X is the log of the dose or concentration, and H is the slope factor or Hill slope. The same equation was used for the concentration-inhibition curves but logEC50 was replaced by logIC50 (half-maximal inhibitory concentration).” for “equations.”
as §4

Clu-GABARs = assay: Voltage-clamp inhibition, summary over the five canine subunit combinations; format: cell-based, Canis lupus familiaris; settings: at 30 μM
Experimental: as §2
as §3, with “equations. The concentration-activation curves were fitted using the following equation: Y=100/1+10^H(logEC50-X) where Y is the normalized response, logEC50 is the logarithm of the concentration of agonist eliciting half-maximal current amplitude, X is the log of the dose or concentration, and H is the slope factor or Hill slope. The same equation was used for the concentration-inhibition curves but logEC50 was replaced by logIC50 (half-maximal inhibitory concentration).” for “equations.”
as §4

[1] = set-up: method as in PMID 33733534; settings: cited from earlier work; for maximum in vivo concentration in dog plasma: oral treatment at the minimum recommended dose
[2] = set-up: method as in PMID 40269978; settings: MDR1 mutant dog breeds; cited from earlier work
Clu-GABA α2β2γ2 = Clu-GABA α2β2γ2 (Canis lupus familiaris, UniProt A0A8I3RPG5+A0A8I3S1N5+E2RSQ0); assay: Two-electrode voltage-clamp inhibition of GABA current, receptor expressed in Xenopus oocytes; format: cell-based
From the text: as §1, §2, §3

Clu-GABA α1β2γ2 = Clu-GABA α1β2γ2 (Canis lupus familiaris, UniProt A0A2H4NNI8+A0A8I3RPG5+E2RSQ0); assay: as above; format: cell-based
From the text: as §1, §2, §3

Clu-GABA α5β2γ2 = Clu-GABA α5β2γ2 (Canis lupus familiaris, UniProt A0A8I3PC22+A0A8I3RPG5+E2RSQ0); assay: as above; format: cell-based
From the text: as §1, §2, §3

Clu-GABA α3β2γ2 = Clu-GABA α3β2γ2 (Canis lupus familiaris, UniProt A0A8I3PRS3+A0A8I3RPG5+E2RSQ0); assay: as above; format: cell-based
From the text: as §1, §2, §3

Clu-GABA α2β3γ2 = Clu-GABA α2β3γ2 (Canis lupus familiaris, UniProt A0A8I3NUI4+A0A8I3S1N5+E2RSQ0); assay: as above; format: cell-based
From the text: as §1, §2, §3

[3] = system: human and dog GABAA receptor containing the γ2 subunit; assay: Positive modulation by diazepam to confirm γ2 incorporation; format: cell-based; settings: all receptor subtypes expressed; data not shown
Experimental: as §2

[4] = Xenopus oocytes, −80 mV, 60 s pre-exposure, co-applied with GABA 0.3 µM (near EC10)
[5] = Xenopus oocytes, −80 mV, 60 s pre-exposure, co-applied with GABA 1 µM (near EC10)

Hsa-GABA α5β2γ2, sequence (P31644 32-462): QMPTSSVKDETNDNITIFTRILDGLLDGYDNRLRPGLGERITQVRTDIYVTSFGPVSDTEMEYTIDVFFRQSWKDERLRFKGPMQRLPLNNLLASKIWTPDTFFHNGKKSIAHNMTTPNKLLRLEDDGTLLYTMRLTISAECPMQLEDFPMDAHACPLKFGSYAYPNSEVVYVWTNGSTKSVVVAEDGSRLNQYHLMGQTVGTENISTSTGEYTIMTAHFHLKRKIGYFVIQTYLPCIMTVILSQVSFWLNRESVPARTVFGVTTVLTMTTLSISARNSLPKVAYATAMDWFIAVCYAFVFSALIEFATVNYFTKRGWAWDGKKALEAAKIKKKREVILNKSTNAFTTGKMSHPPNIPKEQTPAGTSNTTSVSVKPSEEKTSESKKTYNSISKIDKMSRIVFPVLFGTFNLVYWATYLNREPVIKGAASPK
Hsa-GABA α5β2γ2, sequence (P47870 26-474 isoform P47870-1 limits assumed): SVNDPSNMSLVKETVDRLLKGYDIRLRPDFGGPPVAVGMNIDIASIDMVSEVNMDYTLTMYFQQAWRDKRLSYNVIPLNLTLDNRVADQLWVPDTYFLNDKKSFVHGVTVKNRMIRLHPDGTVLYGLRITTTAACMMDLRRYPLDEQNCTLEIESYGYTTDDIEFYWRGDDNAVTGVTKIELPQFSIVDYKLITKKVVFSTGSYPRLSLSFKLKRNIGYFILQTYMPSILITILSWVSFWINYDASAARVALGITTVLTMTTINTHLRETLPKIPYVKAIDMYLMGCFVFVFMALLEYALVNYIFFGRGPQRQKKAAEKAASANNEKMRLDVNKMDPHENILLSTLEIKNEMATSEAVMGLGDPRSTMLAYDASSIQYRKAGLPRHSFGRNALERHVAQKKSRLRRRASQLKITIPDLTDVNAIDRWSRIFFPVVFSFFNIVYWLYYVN
Hsa-GABA α5β2γ2, sequence (P18507 40-467 isoform P18507-1 limits assumed): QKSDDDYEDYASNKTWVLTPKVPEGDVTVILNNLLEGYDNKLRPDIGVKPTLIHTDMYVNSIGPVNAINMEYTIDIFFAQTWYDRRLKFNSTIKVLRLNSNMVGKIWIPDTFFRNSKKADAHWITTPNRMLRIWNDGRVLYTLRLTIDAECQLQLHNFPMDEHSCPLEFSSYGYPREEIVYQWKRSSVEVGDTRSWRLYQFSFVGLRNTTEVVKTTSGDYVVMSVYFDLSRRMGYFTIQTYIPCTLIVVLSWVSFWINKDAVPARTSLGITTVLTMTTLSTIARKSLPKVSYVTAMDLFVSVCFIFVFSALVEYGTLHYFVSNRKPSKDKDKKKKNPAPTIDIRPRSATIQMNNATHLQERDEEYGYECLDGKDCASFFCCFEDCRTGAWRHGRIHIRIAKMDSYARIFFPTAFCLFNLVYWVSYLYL
Hsa-GABA α1β2γ2, sequence (P14867 28-456): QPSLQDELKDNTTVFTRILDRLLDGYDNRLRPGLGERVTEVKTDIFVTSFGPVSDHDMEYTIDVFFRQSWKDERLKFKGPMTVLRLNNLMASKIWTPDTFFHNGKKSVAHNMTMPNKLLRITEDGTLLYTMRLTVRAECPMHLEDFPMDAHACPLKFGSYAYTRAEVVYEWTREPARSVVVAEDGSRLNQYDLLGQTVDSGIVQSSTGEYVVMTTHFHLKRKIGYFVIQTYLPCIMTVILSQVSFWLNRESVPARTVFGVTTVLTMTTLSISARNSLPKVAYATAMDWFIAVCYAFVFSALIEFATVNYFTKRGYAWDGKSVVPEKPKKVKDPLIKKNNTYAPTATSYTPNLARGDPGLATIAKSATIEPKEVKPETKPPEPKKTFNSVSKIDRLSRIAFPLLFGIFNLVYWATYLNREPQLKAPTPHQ
Hsa-GABA α1β2γ2, sequence (P47870 26-474 isoform P47870-1 limits assumed): as the sequence (P47870 26-474 isoform P47870-1 limits assumed) above
Hsa-GABA α1β2γ2, sequence (P18507 40-467 isoform P18507-1 limits assumed): as the sequence (P18507 40-467 isoform P18507-1 limits assumed) above
Clu-GABA α1β2γ2, sequence (A0A2H4NNI8 28-456): as the sequence (P14867 28-456) above
Clu-GABA α1β2γ2, sequence (A0A8I3RPG5 25-473): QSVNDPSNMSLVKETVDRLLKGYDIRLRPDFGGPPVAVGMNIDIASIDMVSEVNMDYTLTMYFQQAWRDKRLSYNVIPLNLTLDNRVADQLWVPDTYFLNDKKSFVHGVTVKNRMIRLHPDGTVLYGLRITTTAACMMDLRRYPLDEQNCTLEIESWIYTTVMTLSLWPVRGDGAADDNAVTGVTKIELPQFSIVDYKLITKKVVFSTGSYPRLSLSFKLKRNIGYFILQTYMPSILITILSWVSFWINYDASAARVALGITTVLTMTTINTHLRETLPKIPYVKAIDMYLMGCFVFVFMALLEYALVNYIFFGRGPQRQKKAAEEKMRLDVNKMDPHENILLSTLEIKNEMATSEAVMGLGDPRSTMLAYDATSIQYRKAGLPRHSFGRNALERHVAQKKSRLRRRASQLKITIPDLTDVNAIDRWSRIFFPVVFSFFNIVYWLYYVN
Clu-GABA α1β2γ2, sequence (E2RSQ0 40-467): as the sequence (P18507 40-467 isoform P18507-1 limits assumed) above

## Cc1cc(C2=NO[C@@](c3cc(Cl)c(Cl)c(Cl)c3)(C(F)(F)F)C2)sc1C(=O)NCC(=O)NCC(F)(F)F [Lotilaner, lotilaner]
Hsa-GABA α5β2γ2
  IC50: > 30 µM
Hsa-GABA α2β2γ2
  IC50: > 30 µM
Hsa-GABA α3β2γ2
  IC50: > 30 µM
Hsa-GABA α6β2γ2
  IC50: > 30 µM
Hsa-GABA α1β2γ2
  IC50: > 30 µM
Hsa-GABA α2β3γ2
  IC50: > 30 µM
Human and canine GABARs; range or bound over all eleven subunit combinations
  IC50: > 30 µM
Human and canine GABARs
  inhibitory effect on human and canine GABARs (in words): inactive
Human and canine GABARs; listed as lotilaner
  inhibitory effect on human and canine GABARs (in words): little or no inhibitory effect; also recorded: did not show any significant inhibition
Hsa-GABARs
  average GABA current inhibition: 13%
Clu-GABARs
  average GABA current inhibition: 20%
[1]
  maximum in vivo concentration in dog plasma: 6.7 µM
[2]
  neurological symptoms (in words): did not reveal neurological symptoms
Clu-GABA α2β2γ2
  IC50: > 30 µM
Clu-GABA α1β2γ2
  IC50: > 30 µM
Clu-GABA α5β2γ2
  IC50: > 30 µM
Clu-GABA α3β2γ2
  IC50: > 30 µM
Clu-GABA α2β3γ2
  IC50: > 30 µM

## CS(=O)(=O)CC(=O)N1CC2(C1)OCc1cc(C3=NO[C@@](c4cc(Cl)c(F)c(Cl)c4)(C(F)(F)F)C3)ccc12 [Sarolaner, sarolaner]
Hsa-GABA α5β2γ2; [4]
  IC50: 8.4 µM
Hsa-GABA α2β2γ2; Xenopus oocytes, −80 mV, 60 s pre-exposure, co-applied with GABA 3 µM (near EC10)
  IC50: 19.5 µM
Hsa-GABA α3β2γ2; [5]
  IC50: 13.4 µM
Hsa-GABA α6β2γ2; [4]
  IC50: 16.1 µM
Hsa-GABA α1β2γ2; [5]
  IC50: 21.9 µM
Hsa-GABA α2β3γ2; [5]
  IC50: > 30 µM
Human and canine GABARs
  inhibitory effect on human and canine GABARs (in words): partial to high inhibition
Hsa-GABARs
  average GABA current inhibition: 53%
Hsa-GABARs; tested up to 30 μM
  inhibition of human GABARs (in words): partial inhibition
Clu-GABARs
  average GABA current inhibition: 57%
[1]; dose of 2 mg/kg body weight, read-out: Cmax in dog plasma
  Cmax: 1900 nM
[1]
  maximum in vivo concentration in dog plasma: 1.9 µM
Clu-GABA α2β2γ2; Xenopus oocytes, −80 mV, 60 s pre-exposure, co-applied with GABA 5 µM (near EC10)
  IC50: 10.2 µM
Clu-GABA α1β2γ2; [5]
  IC50: 21.8 µM
Clu-GABA α5β2γ2; [5]
  IC50: 10.2 µM
Clu-GABA α3β2γ2; Xenopus oocytes, −80 mV, 60 s pre-exposure, co-applied with GABA 0.5 µM (near EC10)
  IC50: 13.1 µM
Clu-GABA α2β3γ2; [5]
  IC50: 13.4 µM

## CN1C(=O)CN=C(c2ccccc2)c2cc(Cl)ccc21 [diazepam]
[3]
  positive modulation: > 200%
